These results are taken from patent publication US20090270413A1, “DI-T-BUTYLPHENYL PIPERAZINES AS CALCIUM CHANNEL BLOCKERS” (priority 2008, published 2009).

Common to all, as to type: cell-based
For assay [1], the target named is T1, Human Cav2.2 channels (Homo sapiens, UniProt Q00975).
T1 construct: expressed in transfected cells
Put plainly: Block of Cav2.2 (N-type) channels expressed in HEK293 cells. The conditions noted are these: for inhibition at 10 µM / inhibition at 30 µM: HEK293; for inhibition at 10 µM: read-out: Cav 2.2 % Inh @ 10 μM; for inhibition at 30 µM: read-out: Cav 2.2 % Inh @ 30 μM; for IC50: read-out: Cav 2.2 IC50. From the text: Human Cav2.2 channels were stably expressed in HEK293 cells along with alpha2-delta and beta subunits of voltage-gated calcium channels. An inwardly rectifying potassium channel (Kir2.3) was also expressed in these cells to allow more precise control of the cell membrane potential by extracellular potassium concentration. At low bath potassium concentration, the membrane potential is relatively negative, and is depolarized as the bath potassium concentration is raised. In this way, the bath potassium concentration can be used to regulate the voltage-dependent conformations of the channels. Compounds are incubated with cells in the presence of low (4 mM) potassium or elevated (12, 25 or 30 mM) potassium to determine the affinity for compound block of resting (closed) channels at 4 mM potassium or affinity for block of open and inactivated channels at 12, 25 or 30 mM potassium. After the incubation period, Cav2.2 channel opening is triggered by addition of higher concentration of potassium (70 mM final concentration) to further depolarize the cell. The degree of state-dependent block can be estimated from the inhibitory potency of compounds after incubation in different potassium concentrations.
Calcium influx through Cav2.2 channels is determined using a calcium sensitive fluorescent dye in combination with a fluorescent plate reader. Fluorescent changes were measured with either a VIPR (Aurora Instruments) or FLIPR (Molecular Devices) plate reader.
Protocol • 1. Seed cells in Poly-D-Lysine Coated 96 or 384-well plate and keep in a 37° C.-10% CO2 incubator overnight • 2. Remove media, wash cells with 0.2 mL (96-well plate) or 0.05 mL (384-well plate) Dulbecco's Phosphate Buffered Saline (D-PBS) with calcium & magnesium (Invitrogen; 14040) • 3. Add 0.1 mL (96-well plate) or 0.05 mL (384-well plate) of 4 μM fluor-4 (Molecular Probes; F-14202) and 0.02% Pluronic acid (Molecular Probes; P-3000) prepared in D-PBS with calcium & magnesium (Invitrogen; 14040) supplemented with 10 mM Glucose & 10 mM Hepes/NaOH; pH 7.4 • 4. Incubate in the dark at 25° C. for 60-70 min • 5. Remove dye, wash cells with 0.1 mL (96-well plate) or 0.06 mL (384-well plate) of 4, 12, 25, or 30 mM Potassium Pre-polarization Buffer (PPB) • 6. Add 0.1 mL (96-well plate) or 0.03 mL (384-well plate) of 4, 12, 25, 30 mM PPB with or without test compound • 7. Incubate in the dark at 25° C. for 30 min • 8. Read cell plate on VIPR instrument, Excitation=480 nm, Emission=535 nm • 9. With VIPR continuously reading, add 0.1 mL (96-well plate) or 0.03 mL (384-well plate) of Depolarization Buffer (DB), which is 2× the final assay concentration, to the cell plate.
Block of N-type calcium channels is evaluated utilizing the IonWorks HT 384 well automated patch clamp electrophysiology device. This instrument allows synchronous recording from 384 well (48 at a time). A single whole cell recording is made in each well. Whole cell recording is established by perfusion of the internal compartment with amphotericin B.
The voltage protocol is designed to detect use-dependent block. A 2 Hz train of depolarizations (twenty 25 ms steps to +20 mV). The experimental sequence consists of a control train (pre-compound), incubation of cells with compound for 5 minutes, followed by a second train (post-compound). Use dependent block by compounds is estimated by comparing fractional block of the first pulse in the train to block of the 20th pulse.
Parallel patch clamp electrophysiology is performed using IonWorks HT (Molecular Devices Corp) essentially as described by Kiss and colleagues (Kiss et al. 2003; Assay and Drug Development Technologies, 1:127-135). Briefly, a stable HEK 293 cell line (referred to as CBK) expressing the N-type calcium channel subunits (α1B, α2δ, β3a) and an inwardly rectifying potassium channel (Kir2.3) is used to record barium current through the N-type calcium channel. Cells are grown in T75 culture plates to 60-90% confluence before use. […]

Assay [2] concerns the target T2, Cav3.1 (T-type channel alpha-1G) (Homo sapiens, UniProt O43497).
T2 construct: expressed in transfected cells; host or cells: HEK 293
The experiment in a line: T-type calcium channel voltage-clamp assay, Cav3.1. Particulars: read-out: Cav 3.1 IC50. On the procedure:
(§1) The T-type calcium channel blocking activity of the compounds of this invention may be readily determined using the methodology well known in the art described by Xia, et al., Assay and Drug Development Tech., 1 (5), 637-645 (2003).
(§2) In a typical experiment ion channel function from HEK 293 cells expressing the T-type channel alpha-1G, H, or I (CaV 3.1, 3.2, 3.3) is recorded to determine the activity of compounds in blocking the calcium current mediated by the T-type channel alpha-1G, H, or I (CaV 3.1, 3.2, 3.3). In this T-type calcium (Ca^2+) antagonist voltage-clamp assay calcium currents are elicited from the resting state of the human alpha-1G, H, or I (CaV 3.1, 3.2, 3.3) calcium channel as follows. Sequence information for T-type (Low-voltage activated) calcium channels are fully disclosed in e.g., U.S. Pat. No. 5,618,720, U.S. Pat. No. 5,686,241, U.S. Pat. No. 5,710,250,U.S. Pat. No. 5,726,035, U.S. Pat. No. 5,792,846, U.S. Pat. No. 5,846,757, U.S. Pat. No. 5,851,824, U.S. Pat. No. 5,874,236, U.S. Pat. No. 5,876,958, U.S. Pat. No. 6,013,474, U.S. Pat. No. 6,057,114, U.S. Pat. No. 6,096,514, WO 99/28342, and J. Neuroscience, 19 (6):1912-1921 (1999). Cells expressing the t-type channels were grown in H3D5 growth media which is comprised DMEM, 6% bovine calf serum (HYCLONE), 30 micromolar Verapamil, 200 microgram/ml Hygromycin B, 1× Penicillin/Streptomycin. Glass pipettes are pulled to a tip diameter of 1-2 micrometer on a pipette puller. The pipettes are filled with the intracellular solution and a chloridized silver wire is inserted along its length, which is then connected to the headstage of the voltage-clamp amplifier. Trypsinization buffer was 0.05% Trypsin, 0.53 mM EDTA. The extracellular recording solution consists of (mM): 130 mM NaCl, 4 mM KCl, 1 mM MgCl2, 2 mM CaCl2, 10 mM HEPES, 30 Glucose, pH 7.4. The internal solution consists of (mM): 135 mM CsMeSO4, 1 MgCl2, 10 CsCl, 5 EGTA, 10 HEPES, pH 7.4, or 135 mM CsCl, 2 MgCl2, 3 MgATP, 2 Na2ATP, 1 Na2GTP, 5 EGTA, 10 HEPES, pH 7.4. Upon insertion of the pipette tip into the bath, the series resistance is noted (acceptable range is between 1-4 megaohm). The junction potential between the pipette and bath solutions is zeroed on the amplifier. The cell is then patched, the patch broken, and, after compensation for series resistance (>=80%), the voltage protocol is applied while recording the whole cell Ca2+ current response. Voltage protocols: (1) −80 mV holding potential every 20 seconds pulse to −20 mV for 40 msec duration; the effectiveness of the drug in inhibiting the current mediated by the channel is measured directly from measuring the reduction in peak current amplitude initiated by the voltage shift from −80 mV to −20 mV; (2). −100 mV holding potential every 15 seconds pulse to −20 mV for 40 msec duration; the effectiveness of the drug in inhibiting the current mediated by the channel is measured directly from measuring the reduction in peak current amplitude initiated by the shift in potential from −100 mV to […]. The difference in block at the two holding potentials was used to determine the effect of drug at differing levels of inactivation induced by the level of resting state potential of the cells. After obtaining control baseline calcium currents, extracellular solutions containing increasing concentrations of a test compound are washed on. Once steady state inhibition at a given compound concentration is reached, a higher concentration of compound is applied. % inhibition of the peak inward control Ca2+ current during the depolarizing step to −20 mV is plotted as a function of compound concentration.

Assay [3] concerns the target T3, Cav3.2 (T-type channel alpha-1H) (Homo sapiens, UniProt O95180).
T3 construct: expressed in transfected cells; host or cells: HEK 293
Put plainly: T-type calcium channel voltage-clamp assay, Cav3.2. The conditions noted are these: read-out: Cav 3.2 IC50. The protocol:
as §1, §2

T2 sequence (O43497 whole entry): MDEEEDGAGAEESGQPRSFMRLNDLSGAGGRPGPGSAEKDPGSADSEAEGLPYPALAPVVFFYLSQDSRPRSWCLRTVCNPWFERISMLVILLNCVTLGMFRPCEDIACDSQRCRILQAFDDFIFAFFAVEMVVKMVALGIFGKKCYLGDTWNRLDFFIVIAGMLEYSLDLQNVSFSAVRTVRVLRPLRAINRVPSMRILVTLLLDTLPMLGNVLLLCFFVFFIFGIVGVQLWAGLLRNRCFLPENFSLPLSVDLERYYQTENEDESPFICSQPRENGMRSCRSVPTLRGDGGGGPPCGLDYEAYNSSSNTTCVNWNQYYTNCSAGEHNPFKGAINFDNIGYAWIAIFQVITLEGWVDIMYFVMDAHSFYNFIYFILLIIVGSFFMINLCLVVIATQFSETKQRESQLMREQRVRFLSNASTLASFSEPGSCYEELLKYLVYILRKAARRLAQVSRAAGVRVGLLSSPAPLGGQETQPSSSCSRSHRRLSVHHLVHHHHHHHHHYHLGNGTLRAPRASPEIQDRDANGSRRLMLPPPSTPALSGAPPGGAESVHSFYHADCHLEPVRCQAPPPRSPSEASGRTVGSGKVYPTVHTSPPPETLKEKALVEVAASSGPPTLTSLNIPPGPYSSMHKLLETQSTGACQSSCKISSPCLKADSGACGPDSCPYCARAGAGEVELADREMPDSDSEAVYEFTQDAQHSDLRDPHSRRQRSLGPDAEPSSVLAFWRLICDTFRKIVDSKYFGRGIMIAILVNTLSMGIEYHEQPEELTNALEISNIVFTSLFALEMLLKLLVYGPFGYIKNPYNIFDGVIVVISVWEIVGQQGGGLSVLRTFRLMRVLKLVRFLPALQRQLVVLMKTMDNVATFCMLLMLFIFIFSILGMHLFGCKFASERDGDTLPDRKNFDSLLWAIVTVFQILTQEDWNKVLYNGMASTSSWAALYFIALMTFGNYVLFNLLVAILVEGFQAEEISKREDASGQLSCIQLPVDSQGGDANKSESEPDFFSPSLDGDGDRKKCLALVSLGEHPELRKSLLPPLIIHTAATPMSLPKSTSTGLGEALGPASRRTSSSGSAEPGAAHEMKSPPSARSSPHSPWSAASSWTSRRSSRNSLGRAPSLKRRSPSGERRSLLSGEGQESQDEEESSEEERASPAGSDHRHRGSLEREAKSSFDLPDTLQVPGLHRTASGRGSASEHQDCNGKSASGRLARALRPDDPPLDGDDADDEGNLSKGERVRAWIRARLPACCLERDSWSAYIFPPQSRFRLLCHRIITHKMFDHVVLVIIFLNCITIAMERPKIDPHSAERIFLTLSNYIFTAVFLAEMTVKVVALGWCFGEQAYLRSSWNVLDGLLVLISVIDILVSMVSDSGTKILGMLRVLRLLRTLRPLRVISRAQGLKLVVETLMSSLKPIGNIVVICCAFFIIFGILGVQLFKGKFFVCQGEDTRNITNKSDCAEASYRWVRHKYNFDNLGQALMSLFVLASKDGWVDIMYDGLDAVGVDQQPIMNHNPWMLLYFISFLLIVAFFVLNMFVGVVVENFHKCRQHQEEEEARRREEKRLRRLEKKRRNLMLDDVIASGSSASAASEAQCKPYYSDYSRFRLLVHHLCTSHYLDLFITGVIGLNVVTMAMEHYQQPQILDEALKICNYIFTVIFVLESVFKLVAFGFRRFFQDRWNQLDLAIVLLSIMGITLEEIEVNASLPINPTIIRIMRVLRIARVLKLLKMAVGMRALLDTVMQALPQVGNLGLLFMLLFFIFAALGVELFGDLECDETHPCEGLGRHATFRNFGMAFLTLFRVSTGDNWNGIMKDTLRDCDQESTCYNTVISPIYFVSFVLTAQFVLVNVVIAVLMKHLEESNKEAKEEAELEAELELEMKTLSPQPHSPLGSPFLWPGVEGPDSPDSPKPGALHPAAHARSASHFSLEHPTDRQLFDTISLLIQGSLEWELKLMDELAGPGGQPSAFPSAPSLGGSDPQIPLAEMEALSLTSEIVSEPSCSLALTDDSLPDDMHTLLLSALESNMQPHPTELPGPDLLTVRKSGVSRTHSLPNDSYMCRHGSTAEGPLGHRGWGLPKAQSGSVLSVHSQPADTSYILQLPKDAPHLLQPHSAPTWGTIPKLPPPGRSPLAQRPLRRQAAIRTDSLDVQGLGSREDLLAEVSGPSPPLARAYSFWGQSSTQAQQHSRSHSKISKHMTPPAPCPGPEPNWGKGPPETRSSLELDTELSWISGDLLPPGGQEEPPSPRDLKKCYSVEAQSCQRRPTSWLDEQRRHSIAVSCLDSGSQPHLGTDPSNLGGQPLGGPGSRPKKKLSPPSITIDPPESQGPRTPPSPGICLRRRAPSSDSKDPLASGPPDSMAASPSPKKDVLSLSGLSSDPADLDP
T3 sequence (O95180 whole entry): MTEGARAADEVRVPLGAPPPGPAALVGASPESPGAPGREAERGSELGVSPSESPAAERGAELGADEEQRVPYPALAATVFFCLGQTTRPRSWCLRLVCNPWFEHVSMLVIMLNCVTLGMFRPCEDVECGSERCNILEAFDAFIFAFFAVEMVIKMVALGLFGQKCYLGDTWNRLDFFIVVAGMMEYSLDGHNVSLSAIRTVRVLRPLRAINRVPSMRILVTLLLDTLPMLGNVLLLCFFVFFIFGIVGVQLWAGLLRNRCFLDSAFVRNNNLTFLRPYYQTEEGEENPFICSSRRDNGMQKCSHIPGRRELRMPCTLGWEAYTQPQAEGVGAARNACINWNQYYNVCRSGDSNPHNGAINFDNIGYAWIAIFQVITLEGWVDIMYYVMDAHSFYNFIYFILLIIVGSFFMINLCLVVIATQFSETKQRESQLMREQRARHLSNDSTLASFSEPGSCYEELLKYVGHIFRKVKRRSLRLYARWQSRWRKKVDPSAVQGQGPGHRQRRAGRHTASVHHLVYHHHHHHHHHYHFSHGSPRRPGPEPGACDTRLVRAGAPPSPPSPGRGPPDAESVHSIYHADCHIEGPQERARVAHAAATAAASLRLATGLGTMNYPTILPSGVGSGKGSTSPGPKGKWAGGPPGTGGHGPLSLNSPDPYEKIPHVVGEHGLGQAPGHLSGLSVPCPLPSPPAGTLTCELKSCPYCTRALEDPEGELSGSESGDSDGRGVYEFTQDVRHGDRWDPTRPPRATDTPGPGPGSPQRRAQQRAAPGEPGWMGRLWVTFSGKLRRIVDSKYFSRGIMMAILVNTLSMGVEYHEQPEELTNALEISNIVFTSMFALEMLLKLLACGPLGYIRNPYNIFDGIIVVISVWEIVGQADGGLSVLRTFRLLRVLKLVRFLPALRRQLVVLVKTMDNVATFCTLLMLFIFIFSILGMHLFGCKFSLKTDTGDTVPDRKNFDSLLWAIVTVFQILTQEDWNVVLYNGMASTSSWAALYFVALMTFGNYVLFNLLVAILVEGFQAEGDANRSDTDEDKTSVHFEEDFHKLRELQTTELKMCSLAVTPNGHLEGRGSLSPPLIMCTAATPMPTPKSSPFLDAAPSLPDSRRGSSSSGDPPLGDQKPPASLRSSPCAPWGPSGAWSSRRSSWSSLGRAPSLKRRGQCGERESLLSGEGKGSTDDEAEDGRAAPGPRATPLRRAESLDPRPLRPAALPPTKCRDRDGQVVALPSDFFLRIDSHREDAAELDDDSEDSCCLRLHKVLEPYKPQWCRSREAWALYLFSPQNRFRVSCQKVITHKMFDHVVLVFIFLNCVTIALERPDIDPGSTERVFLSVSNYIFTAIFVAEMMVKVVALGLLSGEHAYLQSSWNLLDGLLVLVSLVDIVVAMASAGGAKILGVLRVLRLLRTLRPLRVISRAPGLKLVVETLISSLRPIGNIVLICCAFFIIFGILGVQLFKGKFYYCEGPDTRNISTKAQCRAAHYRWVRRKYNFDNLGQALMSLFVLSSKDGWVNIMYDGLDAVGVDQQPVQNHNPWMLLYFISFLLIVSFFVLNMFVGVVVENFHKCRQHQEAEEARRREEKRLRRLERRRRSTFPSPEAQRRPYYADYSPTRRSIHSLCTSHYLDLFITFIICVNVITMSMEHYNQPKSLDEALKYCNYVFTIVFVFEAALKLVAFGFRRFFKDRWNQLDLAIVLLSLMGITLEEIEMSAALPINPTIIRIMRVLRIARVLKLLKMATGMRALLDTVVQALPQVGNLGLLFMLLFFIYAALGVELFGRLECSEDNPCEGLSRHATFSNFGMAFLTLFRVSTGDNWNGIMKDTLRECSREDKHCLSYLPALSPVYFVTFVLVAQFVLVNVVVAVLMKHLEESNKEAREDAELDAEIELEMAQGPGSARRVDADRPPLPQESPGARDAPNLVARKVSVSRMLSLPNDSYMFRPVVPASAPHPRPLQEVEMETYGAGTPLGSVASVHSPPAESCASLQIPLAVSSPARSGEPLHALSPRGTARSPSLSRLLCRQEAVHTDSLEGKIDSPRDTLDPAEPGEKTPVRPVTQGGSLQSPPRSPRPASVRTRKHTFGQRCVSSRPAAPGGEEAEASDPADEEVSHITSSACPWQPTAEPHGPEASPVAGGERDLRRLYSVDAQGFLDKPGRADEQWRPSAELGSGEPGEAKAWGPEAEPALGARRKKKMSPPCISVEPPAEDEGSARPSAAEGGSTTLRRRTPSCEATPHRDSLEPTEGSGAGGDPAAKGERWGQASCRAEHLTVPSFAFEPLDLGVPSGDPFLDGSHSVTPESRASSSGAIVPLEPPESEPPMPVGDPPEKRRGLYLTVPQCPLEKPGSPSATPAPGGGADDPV

On to `CC(C)(C)c1cc(N2CCN(C(=O)c3ccc(F)cc3)CC2)cc(C(C)(C)C)c1` [Compound 4, (4-(3,5-di-tert-butylphenyl)piperazin-1-yl)(4-fluorophenyl)methanone], for which, in assay [1], the inhibition at 10 µM amounted to 92%, the inhibition at 30 µM was found to be 97% and the IC50 (usually the midpoint of a concentration-inhibition curve) worked out at 2210 nM. In assay [2], the IC50 amounted to 890 nM. For the same compound, the 50% inhibitory concentration (IC50) in assay [3] is 790 nM.

As to `CC(C)(C)C(=O)Nc1ccncc1C(=O)N1CCN(c2cc(C(C)(C)C)cc(C(C)(C)C)c2)CC1` [Compound 7, N-(3-(4-(3,5-di-tert-butylphenyl)piperazine-1-carbonyl)pyridin-4-yl)pivalamide], in assay [1], the inhibition at 10 µM amounted to 97%, the inhibition at 30 µM worked out at 96% and the IC50 amounted to 300 nM. Further, the 50% inhibitory concentration (IC50) in assay [2] was determined as 470 nM. The IC50 in assay [3] is 660 nM.

Consider `CC(C)(C)C(=O)Nc1ncccc1C(=O)N1CCN(c2cc(C(C)(C)C)cc(C(C)(C)C)c2)CC1` [Compound 8, N-(3-(4-(3,5-di-tert-butylphenyl)piperazine-1-carbonyl)pyridin-2-yl)pivalamide], for which, in assay [1], the inhibition at 10 µM stood at 94%, the inhibition at 30 µM was determined as 95% and the IC50 came to 650 nM. The IC50 in assay [2] is 550 nM. In addition, in assay [3], the 50% inhibitory concentration (IC50) was 710 nM.

Regarding `Cc1cc(C(=O)N2CCN(c3cc(C(C)(C)C)cc(C(C)(C)C)c3)CC2)n(C(C)(C)C)n1` [Compound 10, (1-tert-butyl-3-methyl-1H-pyrazol-5-yl)(4-(3,5-di-tert-butylphenyl)piperazin-1-yl)methanone], in assay [1], the inhibition at 10 µM came out at 96%, the inhibition at 30 µM was determined as 104% and the IC50 came out at 370 nM. Moreover, in assay [2], the IC50 came out at 1070 nM. The half-maximal inhibitory concentration (IC50) in assay [3] was found to be 1310 nM.

Take `CC(C)(C)c1cc(N2CCN(C(=O)COc3ccc(F)cc3)CC2)cc(C(C)(C)C)c1` [Compound 13, 1-(4-(3,5-di-tert-butylphenyl)piperazin-1-yl)-2-(4-fluorophenoxy)ethanone]: in assay [1], the inhibition at 10 µM is 97%, the inhibition at 30 µM stood at 97% and the half-inhibitory concentration (IC50) was determined as 620 nM. Further, the half-inhibitory concentration (IC50) in assay [2] is 600 nM. Further, in assay [3], the half-maximal inhibitory concentration (IC50) was 680 nM.

For `CC1CCc2sc(C(=O)N3CCN(c4cc(C(C)(C)C)cc(C(C)(C)C)c4)CC3)cc2C1` (stereo not shown) [Compound 43, (4-(3,5-di-tert-butylphenyl)piperazin-1-yl)(5-methyl-4,5,6,7-tetrahydrobenzo[b]thiophen-2-yl)methanone], in assay [1], the inhibition at 10 µM is 46% and the inhibition at 30 µM was 57%.

Consider `CCCc1cc(C(=O)N2CCN(c3cc(C(C)(C)C)cc(C(C)(C)C)c3)CC2)sc1C` [Compound 44, (4-(3,5-di-tert-butylphenyl)piperazin-1-yl)(5-methyl-4-propylthiophen-2-yl)methanone], for which, in assay [1], the inhibition at 10 µM was 65% and the inhibition at 30 µM amounted to 81%.

Turning to `CC(C)(C)c1cc(N2CCN(C(=O)c3nsc(Cl)c3Cl)CC2)cc(C(C)(C)C)c1` [Compound 46, (4-(3,5-di-tert-butylphenyl)piperazin-1-yl)(4,5-dichloroisothiazol-3-yl)methanone], in assay [1], the inhibition at 10 µM stood at 79% and the inhibition at 30 µM was 89%.

`CC(C)(C)c1cc(N2CCN(C(=O)c3cc(-c4ccccc4)nc(-c4ccccc4)c3)CC2)cc(C(C)(C)C)c1` [Compound 50, (4-(3,5-di-tert-butylphenyl)piperazin-1-yl)(2,6-diphenylpyridin-4-yl)methanone]: in assay [1], the inhibition at 10 µM was determined as 20% and the inhibition at 30 µM was 26%.

As to `CCOc1ccc(C(=O)N2CCN(c3cc(C(C)(C)C)cc(C(C)(C)C)c3)CC2)o1` [Compound 51, (4-(3,5-di-tert-butylphenyl)piperazin-1-yl)(5-ethoxyfuran-2-yl)methanone], in assay [1], the inhibition at 10 µM was 98% and the inhibition at 30 µM was 100%.

Regarding `CCc1cc(C(=O)N2CCN(c3cc(C(C)(C)C)cc(C(C)(C)C)c3)CC2)sc1C` [Compound 52, (4-(3,5-di-tert-butylphenyl)piperazin-1-yl)(4-ethyl-5-methylthiophen-2-yl)methanone], in assay [1], the inhibition at 10 µM was 75% and the inhibition at 30 µM turned out to be 88%.
